Measurements reported in paper PMC12687424, “Penetrant PKCβ mutation in ATLL displays a mixed gain-of-function” (Biochemical Journal, 2025).

How the values were obtained:
[1] = target: D427N PKCβII catalytic domain; experiment: Fluorescence polarisation binding of fluorescein-PSS peptide, D427N; conditions: catalytic domains
Procedure: Figure 3 D427N PKCβII has an altered substrate repertoire in vitro . A–D – Representative titration curves from assays of WT or D427N PKCβII catalytic domains with excess ATP and titrations of either histone type III-S, MBP, PSS peptide or BTK S180 peptide. Specific activity in nmol/min/mg was calculated using an ADP standard curve. Error bars indicate the mean ± SD from three technical replicates. E and F – Km and Vmax values of WT and D427N PKCβII catalytic domains for each substrate, obtained from Michaelis–Menten fits of titration curves in (A-D). Error bars indicate the mean ± SD from three independent assays (*=P<0.05, **=P<0.01 versus WT by t-test with Holm–Šídák correction for multiple comparisons). G – Representative binding curves of anisotropy vs protein concentration when WT or D427N PKCβII catalytic domains were titrated into fluorescein–PSS peptide; KD values are shown ± the error of the fit. […] H – Differential heat map of WT and D427N PKCβII activity towards a PamChip microarray, calculated from log2 fold change values relative to a no ATP control array. […] The measured ligand is the PSS peptide, and WT and D427N are protein variants.
Fluorescence polarisation (FP) experiments were performed using an FP-8500 spectrofluorometer (Jasco). […] Equilibrium dissociation constants were determined by plotting anisotropy as a function of PKCβII catalytic domain concentration. […]

[2] = test system: D427N PKCβII catalytic domain; experiment: ADP-Glo in vitro kinase assay with ATP-competitive inhibitors, D427N compared with WT; format: biochemical; conditions: 50 μM ATP, 200 μM PSS peptide; IC50 of D427N higher than WT
Procedure: Given the proximity of the mutation to the nucleotide pocket of the kinase, we compared the potency of three ATP-competitive inhibitors in WT and D427N PKCβII to assess if existing PKC inhibitors could be used to target the mutant. We assayed WT and D427N PKCβII catalytic domains at 50 μM ATP with one indolocarbazole inhibitor (UCN-01) and two bisindolylmaleimide inhibitors (BIM-1 and the PKCβ-specific inhibitor ruboxistaurin) (Figure 5A–C). […] These differences were 17-fold for ruboxistaurin, 9-fold for BIM-1 and 25-fold for UCN-01.
Figure 5 Pharmacology of D427N PKCβII. A–C – Representative dose-response curves when WT and D427N PKCβII catalytic domains were assayed with the indicated inhibitors, 50 μM ATP and 200 μM PSS peptide. ADP produced in the assays was measured by luminescence and converted to specific activity using an ADP standard curve. Error bars indicate the mean ± SD from three technical replicates. D – IC50 values obtained from fitting curves in (A-C). Error bars indicate the mean ± SD from three independent dose-response assays (*=P<0.05, **=P<0.01 versus WT by t-test with Holm–Šídák correction for multiple comparisons). E,F – Orthogonal views of Ruboxistaurin (pink) in the PKCβII nucleotide-binding pocket (cyan). A σA-weighted |2Fo-Fc| map is shown contoured at 1.5 σ. The location of the N427 side chain is indicated. Figure was generated using UCSF ChimeraX.
Kinase assays were carried out in white, 384-well OptiPlates (PerkinElmer) using an ADP-Glo kit (Promega) on a scale of […] for the kinase reaction. Kinase was diluted in assay buffer (40 mM Tris-HCl pH 7.5, 20 mM MgCl2, 0.1 mg/ml BSA (NEB, #B9000S), 1 mM DTT) and added to the plate (typically 0.5–1 ng/well). The assay was started by adding the substrates at a final concentration of 50–300 μM [ATP and either histone type III-S (Sigma, #H5505), MBP (Sigma, #M1891), or a peptide]. […] Luminescence was recorded using an EnSight MultiMode Plate Reader (PerkinElmer), and the slope of a standard curve was used to convert luminescence values to specific activity in nmol ADP/min/mg.

| SMILES | binding affinity of D427N PKCβII relative to WT (from KD values) [1] | difference in IC50, D427N PKCβII catalytic domain versus WT [2] [fold] |
| --- | --- | --- |
| CC(C)C[C@H](NC(=O)[C@H](CO)NC(=O)CNC(=O)[C@H](CCCCN)NC(=O)[C@H](CCCNC(=N)N)NC(=O)[C@H](C)NC(=O)[C@H](Cc1ccccc1)NC(=O)[C@H](CCCNC(=N)N)NC(=O)[C@@H](NC(=O)[C@@H](NC(=O)[C@H](CO)NC(=O)[C@H](CCC(=O)O)NC(=O)c1ccc2c(c1)C(=O)OC21c2ccc(O)cc2Oc2cc(O)ccc21)[C@@H](C)O)C(C)C)C(=O)N[C@@H](CCCNC(=N)N)C(=O)N[C@@H](CCC(N)=O)C(=O)N[C@@H](CCCCN)C(=O)N[C@@H](CC(N)=O)C(=O)N[C@H](C(=O)N[C@@H](Cc1c[nH]cn1)C(N)=O)C(C)C | two-fold weaker affinity than WT |  |
| CN(C)CCCn1cc(C2=C(c3c[nH]c4ccccc34)C(=O)NC2=O)c2ccccc21 [BIM-1] |  | 9 |
| CNC1CC2OC(C)(C1OC)n1c3ccccc3c3c4c(c5c6ccccc6n2c5c31)C(=O)NC4O (stereo not shown) [UCN-01] |  | 25 |
| CN(C)C[C@@H]1CCn2cc(c3ccccc32)C2=C(C(=O)NC2=O)c2cn(c3ccccc23)CCO1 [ruboxistaurin] |  | 17 |
